In brackets after ≈: the same amount, converted by molar mass.
Tests used:
[1] = system: C. albicans SC5314; experiment: Mouse model of disseminated candidiasis (survival); type: in vivo; conditions: for Median survival: CD-1 mice infected i.v. with C. albicans SC5314, observed 21 days
Experimental: Compound 2(a) was provided as a dry powder with an estimated purity of 95+%. Fungizone (amphotericin B desoxycholate, to be used as a comparitor), was also provided as a dry powder with an estimated purity of 95+%. The compound 2(a) and Fungizone were stored as dry powders at −80° C. until the day of administration.
Female mice (species Mus musculus, strain CD-1, Charles River) with body weight range of 22-24 g were used in the study. […] All animal experiments were performed at the Ste-Justine Hospital (Montreal, Quebec) according to ethical guidelines of animal experimentation of the ethical committee of the hospital. During the study, dead or apparently sick animals were promptly removed and sick mice were euthanized upon removal from the cage.
The animals were maintained in rooms under controlled conditions of temperature (23±2° C.), humidity (45±5%), photoperiodicity (12 hrs light/12 hrs dark) and air exchange. The animals were housed in polycarbonate cages (4/single cage) equipped to provide food and water. Sterile wood shavings were used for animal bedding and the bedding was replaced every other day. Food (Harlam Tecklab, Canada) and autoclaved tap water was provided ab libitum, the food being placed in the metal lid on top of the cage. Water bottles were equipped with rubber stoppers and sipper tubes and were cleaned, sterilized and replaced once a week.
Six groups of mice (10 mice per group) were infected intravenously with 3×10^6 CFU of C. albicans SC5314 as previously described (see Dubois, N., et al., Microbiology 1998, 144: 2299-2310). Twenty-four hours after infection, each individual group of mice was treated with Compound 2(a) (1 or 3 mg/kg i.p.), Fungizone (0.25, 0.5 or 1 mg/kg i.p.) as comparitor, or sham-treated with sterile water containing 5% dextrose and 3% DMSO. Each animal received 100 μl of test solution.
The treatment regimen was repeated once daily for a total of 4 days. The mice were observed twice daily for signs of morbidity over 21 days. Moribund animals were scored as non-survivors and euthanized by CO2 inhalation. […]

[2] = system: Cryptococcus neoformans ATCC 32045; experiment: MIC broth microdilution assay
Experimental: (§1) Test compound preparation: The test article was prepared as 100× stock solutions in DMSO, with concentrations ranging from 3.2 mg/ml to 0.0625 mg/ml (a two-fold dilution series over 10 points). The first dilution (3.2 mg/ml) was prepared by resuspending 0.5 mg of each test article in 156.25 μl of DMSO. The stock is then serially diluted by two-fold increments to obtain the desired concentration range.
(§2) Inoculum preparation: For fungal strains, the inoculum was prepared as follows. From an overnight culture in Yeast Media broth, cell density was adjusted in 0.85% saline to 0.5 McFarland. This procedure yielded a stock suspension of about 5×10^6 cells/ml. Following thorough vortexing, a working suspension was prepared by diluting the stock 1:50 in RPMI 1640, and then further diluting it 1:20 with RPMI 1640 to obtain the 2× test inoculum (about 5×10^3 cells/ml). For filamentous fungi, the inoculum was prepared as follows. […]
(§3) 50 μl of the final cell dilution (yeast, filamentous fungi or bacteria) of each indicator strain was added to each corresponding well of the microplate containing 50 μl of diluted drug or media alone. […] MIC readings were determined at 24 and 48 hrs for the Candida and Aspergillus species, and at 48 and 72 hrs for Cryptococcus neoformans. MIC readout for each indicator was determined as the lowest concentration of test compound resulting in total absence of growth.

[3] = system: Saccharomyces cerevisiae ATCC 9763; experiment: MIC broth microdilution assay
Experimental: as §1, §2, §3

[4] = system: Candida albicans ATCC 10231; experiment: MIC broth microdilution assay
Experimental: as §1, §2, §3

[5] = system: Aspergillus fumigatus ATCC 204305; experiment: MIC broth microdilution assay
Experimental: as §1, §2, §3

[6] = system: Candida krusei LSPQ 0309; experiment: MIC broth microdilution assay; conditions: Pichia kudriavzevii
Experimental: as §1, §2, §3

For CC(C=CCCC=CC=CC=CC=CC(=O)NC1=C(O)CCC1=O)C(O)C(C)C(O)C=CC=CC=CC=CC=CCC(OC1OC(C)C(O)C(O)C1O)C(C)C(=O)CC(O)CC(O)CC(O)C=CCC(O)CC(O)CC(O)CC(O)C=CCC(O)CC(O)CCCN (stereo not shown) [Compound 2(a), 56-Amino-15,17,33,35,37,41,43,45,47,51,53-undecahydroxy-14,16,30-trimethyl-31-oxo-29-(3,4,5-trihydroxy-6-methyl-tetrahydro-pyran-2-yloxy)-hexapentaconta-2,4,6,8,12,18,20,22,24,26,38,48-dodecaenoic acid (2-hydroxy-5-oxo-cyclopent-1-enyl)-amide], the Median survival ([1]; 1.0 mg/kg i.p. once daily for 4 days) was 8.5 days, the Median survival ([1]; 3.0 mg/kg i.p. once daily for 4 days) was 20 days and the “increase of the median survival time of infected mice” value ([1]; versus vehicle (median survival 5 days)) was 4 fold. The MIC ([2]; ATCC32045, 48 h) was 2 µg/mL (≈ 1.54 µM), the MIC ([2]; ATCC32045, 72 h) was 4 µg/mL (≈ 3.08 µM) and the MIC ([3]; ATCC9763, 24 h) was 4 µg/mL (≈ 3.08 µM). For the same compound, the MIC ([3]; ATCC9763, 48 h) was 4 µg/mL (≈ 3.08 µM), the MIC ([4]; ATCC10231, 24 h) was 4 µg/mL (≈ 3.08 µM) and the MIC ([4]; ATCC10231, 48 h) was 4 µg/mL (≈ 3.08 µM). For the same compound, the MIC ([5]; ATCC204305, 24 h) was 16 µg/mL (≈ 12.3 µM), the MIC ([5]; ATCC204305, 48 h) was 16 µg/mL (≈ 12.3 µM) and the MIC ([6]; LSPQ0309, 24 h) was 8 µg/mL (≈ 6.17 µM). For the same compound, the MIC ([6]; LSPQ0309, 48 h) was 8 µg/mL (≈ 6.17 µM).
